Laboratory results published in BigSolDB 2.1.

CCCCCCCCCCCCCCCCOc1nc2ccc(C)cc2c(=O)o1
solubility (mole fraction)
Conditions	278.15 K	283.15 K	288.15 K	293.15 K	298.15 K	303.15 K	308.15 K	313.15 K	318.15 K	323.15 K
in acetone	0.0814	0.0965	0.114	0.133	0.157	0.18	0.208	0.245	0.284	0.327
in acetonitrile	0.0619	0.0759	0.089	0.106	0.123	0.144	0.167	0.191	0.222	0.259
in isopropanol	0.0702	0.0829	0.0979	0.116	0.137	0.158	0.181	0.207	0.241	0.28
